# System: 186277-243-T-J2-PDC complex spheroids, viability
# Test: Anticancer human tumor 186277-243-T-J2-PDC patient-derived colon adenocarcinoma cell line growth inhibition [RAS]
# Conditions: for viability, T/C: stronger effect = lower value
# Description: RAS pathway inhibitors in Combinations in Complex Spheroids
# A high-throughput screen of multi-cell type tumor spheroids was designed to identify active combinations of RAS pathway inhibitors and targeted small molecules. Complex spheroids include a stromal component modeled by human endothelial cells (HUVEC) and fibroblasts modeled by human mesenchymal stem cells (MSCs). The concentration ranges selected for each drug and investigational agent were based upon clinically achievable concentrations if the clinical Cmax of the agent was known.
# Compounds. The drugs and investigational agents: abemaciclib (NSC768073), cobimetinib (NSC768068), divarasib (GDC6063, NSC841802), docetaxel (NSC628503), GDC-1971 (RLY-1971, NSC841576), gemcitabine (NSC613327), inavolisib (NSC800729), ipatasertib (NSC767898), KB-0742 (NSC834161), MRTX-1133 (NSC836407), osimertinib (NSC779217), RMC-4630 (NSC839698), RMC-6236 (NSC851965), RMC-6291 (NSC852671), Ro-3306 (NSC812927), sapanisertib (NSC764658), SN-38 (NSC673596), staurosporine (NSC755774), SY5609 (NSC837396), and tovorafenib (DAY101, NSC766906), were obtained from the National Cancer Institute (NCI) Developmental Therapeutics Program Chemical Repository. The FDA-approved anticancer drug set is available from the NCI Developmental Therapeutics Program. […] The stock solutions were prepared in dimethyl sulfoxide (DMSO, Sigma-Aldrich, St. Louis, MO, cat. D2650) at 800-fold the tested concentration and stored at -70 degrees C prior to their use. All drugs and investigational agents were tested over a range starting from a high concentration at or near the clinical Cmax and decreasing in half-log increments. If the clinical Cmax for an agent had not been determined, the highest concentration tested was 10 microM.
# Cell Culture. All cells were maintained in an incubator at 37 degrees C and 5% CO2 with 95% humidity. The PDC lines were cultured according to standard operating procedures established by the NCI PDMR. All PDCs were thawed and cultured in Matrigel-coated flasks prepared with a working solution of 1X Ham's F-12 nutrient mix, without supplementation (Invitrogen, Waltham, MA, cat. 11765054), 100 U/mL penicillin-streptomycin (Invitrogen, cat. 15140122), and 2.5% Matrigel (Corning Inc., Corning, NY, cat. 354248) for the first three passages. The 362531-283-R-J2-PDC and 782815-120-R-J1-PDC lines were cultured in 6C/Colon 1B media, which includes advanced DMEM/F-12 (Thermo Fisher Scientific, cat. 12634028), 10 mM HEPES (Thermo Fisher Scientific, cat. 15630080), 1X GlutaMAX supplement (Thermo Fisher Scientific, cat. 35050061), 0.1 mg/mL primocin (InvivoGen, San Diego, CA, cat. ant-pm-2), 10% defined fetal bovine serum, heat inactivated (HyClone Laboratories Inc., Logan, UT, cat. SH30070.03HI), 50% L-WRN conditioned media (ATCC, cat. CRL-3276), 1.25 mM N-Acetyl-L-cysteine (Sigma-Aldrich, cat. A9165), 10 mM nicotinamide (Sigma-Aldrich, cat. N0636), 1X B-27 supplement (Thermo Fisher Scientific, cat. 17504044), 1X N-2 supplement (Thermo Fisher Scientific, cat. 17502048), 50 ng/mL human EGF (Thermo Fisher Scientific, cat. PHG0311), and 10 microM Y-27632 dihydrochloride (Tocris Bioscience, cat. 1254). The K12877-001-R-J1-PDC line was cultured in 6I media, which includes all 6C/Colon 1B media plus 10 ng/mL human FGF-10 (PeproTech, cat. 100-26), 1 ng/mL human FGF-2 (PeproTech, cat. 100-18B), 1 µM prostaglandin E2 (Tocris Bioscience, cat. 2296), […] hydrocortisone (Sigma-Aldrich, cat. H4001), and […] bovine insulin (Sigma-Aldrich, cat. I6634). The K86415-001-R-J1-PDC line was cultured in 6D media, which includes all 6C/Colon 1B media components minus the L-WRN conditioned media. The 485176-168-R4-J1-PDC was cultured in PANC media, which includes all 6C/Colon 1B media plus 100 ng/mL human FGF-10 (PeproTech, cat. 100-26), 500 nM SB-431542 (Selleckchem, cat. S1067), and 10 nM gastrin (Tocris Bioscience, cat. 3006). […]
# 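Note: spheroids exposed to compounds for 7 days before viability read.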
smiles,measurement,setting,value
CCn1c(-c2cccnc2C(C)OC)c2c3cc(ccc31)N1CCOC(CC(NC(=O)C(C(C)C)N(C)C(=O)C3(F)CCN(C(=O)C#CC(C)(C)N(C)C)CC3)C(=O)N3CCCC(N3)C(=O)OCC(C)(C)C2)C1 (configuration not stated),"viability, T/C",compound 0.000949 µM,96.7% [middle of 8 runs]
same,"viability, T/C",compound 0.003 µM,96.3% [middle of 8 runs]
same,"viability, T/C",compound 0.03 µM,102% [middle of 8 runs]
same,"viability, T/C",compound 0.3 µM,103% [middle of 8 runs]
same,IC50,"compound alone, run of 05/20/2024",> 0.3 µM
NC1c2ccccc2OC12CCN(c1cnc3c(N4CCCc5ncccc54)n[nH]c3n1)CC2 (configuration not stated) + CCn1c(-c2cccnc2C(C)OC)c2c3cc(ccc31)N1CCOC(CC(NC(=O)C(C(C)C)N(C)C(=O)C3(F)CCN(C(=O)C#CC(C)(C)N(C)C)CC3)C(=O)N3CCCC(N3)C(=O)OCC(C)(C)C2)C1,IC50,"curve of first compound, second compound 0.000949 µM",> 10 µM
same,IC50,"curve of first compound, second compound 0.003 µM",> 10 µM
same,IC50,"curve of first compound, second compound 0.00949 µM",> 10 µM
same,IC50,"curve of first compound, second compound 0.03 µM",> 10 µM
same,IC50,"curve of first compound, second compound 0.0949 µM",> 10 µM
same,IC50,"curve of first compound, second compound 0.3 µM",4.09 µM
same,"viability, T/C","second compound 0.000949 µM, first compound 0.0316 µM",84.6%
same,"viability, T/C","second compound 0.000949 µM, first compound 0.1 µM",102%
same,"viability, T/C","second compound 0.000949 µM, first compound 0.316 µM",114%
same,"viability, T/C","second compound 0.000949 µM, first compound 1 µM",122%
same,"viability, T/C","second compound 0.000949 µM, first compound 3.16 µM",109%
same,"viability, T/C","second compound 0.000949 µM, first compound 10 µM",70.3%
same,"viability, T/C","second compound 0.003 µM, first compound 0.0316 µM",108%
same,"viability, T/C","second compound 0.003 µM, first compound 0.1 µM",96.5%
same,"viability, T/C","second compound 0.003 µM, first compound 0.316 µM",119%
same,"viability, T/C","second compound 0.003 µM, first compound 1 µM",119%
same,"viability, T/C","second compound 0.003 µM, first compound 3.16 µM",104%
same,"viability, T/C","second compound 0.003 µM, first compound 10 µM",74.6%
same,"viability, T/C","second compound 0.00949 µM, first compound 0.0316 µM",100%
same,"viability, T/C","second compound 0.00949 µM, first compound 0.1 µM",110%
same,"viability, T/C","second compound 0.00949 µM, first compound 0.316 µM",121%
same,"viability, T/C","second compound 0.00949 µM, first compound 1 µM",119%
same,"viability, T/C","second compound 0.00949 µM, first compound 3.16 µM",104%
same,"viability, T/C","second compound 0.00949 µM, first compound 10 µM",66.9%
same,"viability, T/C","second compound 0.03 µM, first compound 0.0316 µM",111%
same,"viability, T/C","second compound 0.03 µM, first compound 0.1 µM",89%
same,"viability, T/C","second compound 0.03 µM, first compound 0.316 µM",117%
same,"viability, T/C","second compound 0.03 µM, first compound 1 µM",114%
same,"viability, T/C","second compound 0.03 µM, first compound 3.16 µM",105%
same,"viability, T/C","second compound 0.03 µM, first compound 10 µM",76%
same,"viability, T/C","second compound 0.0949 µM, first compound 0.0316 µM",102%
same,"viability, T/C","second compound 0.0949 µM, first compound 0.1 µM",94.1%
same,"viability, T/C","second compound 0.0949 µM, first compound 0.316 µM",112%
same,"viability, T/C","second compound 0.0949 µM, first compound 1 µM",91.2%
same,"viability, T/C","second compound 0.0949 µM, first compound 3.16 µM",83.4%
same,"viability, T/C","second compound 0.0949 µM, first compound 10 µM",60.8%
same,"viability, T/C","second compound 0.3 µM, first compound 0.0316 µM",94.5%
same,"viability, T/C","second compound 0.3 µM, first compound 0.1 µM",88.5%
same,"viability, T/C","second compound 0.3 µM, first compound 0.316 µM",75.5%
same,"viability, T/C","second compound 0.3 µM, first compound 1 µM",65.9%
same,"viability, T/C","second compound 0.3 µM, first compound 3.16 µM",54.6%
same,"viability, T/C","second compound 0.3 µM, first compound 10 µM",38.3%
